Data reported in US9708314B2, “Heterocyclic amide compound” (NISSAN CHEMICAL INDUSTRIES, LTD., priority 2013, dated 2017).

Legend:
Type in all cases: in vivo
[1] = system: Echinochloa oryzacola Vasing.; assay: Test Example 2: herbicidal activity, application during weed generation in submerged conditions; conditions: Eighteenth Table; application herbicide amount 320 g/ha
Method in brief: (§1)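 Alluvial soil in Wagner pots flooded to 4 cm water depth; seeds sown mixed, grown in greenhouse at 25–30 °C. At one- to two-leaf stage, emulsion diluted with water to the set rate (g/ha) was applied to the water surface. Effect scored 0–5 by herbicidal ratio three weeks later.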

[2] = system: Monochoria vaginalis; assay: as above; conditions: Eighteenth Table; application herbicide amount 320 g/ha
Method in brief: as §1

[3] = system: Scirpus juncoides; assay: as above; conditions: Eighteenth Table; application herbicide amount 320 g/ha
Method in brief: as §1

[4] = system: Stellaria media; assay: Test Example 4: herbicidal effect by application to foliage (diluvial soil, plastic box); conditions: foliage application, 320 g/ha
Method in brief: (§2)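 Scores run from 0 (herbicidal ratio ≤5%) to 5 (≥90%, almost fully withered) and were assessed three weeks after foliar spraying. Seedlings had been raised for 14 days at 25-30° C in sterilized diluvial soil before treatment, with the emulsion diluted in water to the stated g/ha dose.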

[5] = system: Setaria viridis; assay: as above; conditions: foliage application, 320 g/ha
Method in brief: as §2

[6] = system: Digitaria ciliaris; assay: as above; conditions: foliage application, 320 g/ha
Method in brief: as §2

[7] = system: Veronica persica; assay: as above; conditions: foliage application, 320 g/ha
Method in brief: as §2

[8] = system: Abutilon theophrasti; assay: as above; conditions: foliage application, 320 g/ha
Method in brief: as §2

[9] = system: Avena fatua; assay: as above; conditions: foliage application, 320 g/ha
Method in brief: as §2

[10] = system: Galium spurium; assay: as above; conditions: foliage application, 320 g/ha
Method in brief: as §2

[11] = system: Amaranthus retroflexus; assay: as above; conditions: foliage application, 320 g/ha
Method in brief: as §2

[12] = system: Apera spica-venti.; assay: as above; conditions: foliage application, 320 g/ha
Method in brief: as §2

[13] = system: Lolium multiflorum Lam.; assay: as above; conditions: foliage application, 320 g/ha
Method in brief: as §2

[14] = system: Alopecurus myosuroides; assay: as above; conditions: foliage application, 320 g/ha
Method in brief: as §2

[15] = system: Chenopodium album; assay: as above; conditions: foliage application, 320 g/ha
Method in brief: as §2

[16] = system: Echinochloa crus-galli var. crus-galli; assay: as above; conditions: foliage application, 320 g/ha
Method in brief: as §2

[17] = system: Zea mays; assay: Test Example 4: effect on crop by application to foliage (diluvial soil, plastic box); conditions: foliage application, 320 g/ha
Method in brief: as §2

[18] = system: directly sowed Oryza sativa; assay: as above; conditions: foliage application, 320 g/ha
Method in brief: as §2

[19] = system: Triticum aestivum; assay: as above; conditions: foliage application, 320 g/ha
Method in brief: as §2

[20] = system: Beta vulgaris ssp. vulgaris; assay: as above; conditions: foliage application, 320 g/ha
Method in brief: as §2

[21] = system: Brassica campestris L.; assay: as above; conditions: foliage application, 320 g/ha
Method in brief: as §2

[22] = system: Glycine max; assay: as above; conditions: foliage application, 320 g/ha
Method in brief: as §2

SMILES | A (Echinochloa oryzicola Vasing.) herbicidal ratio grade [1] | C (Monochoria vaginalis) herbicidal ratio grade [2] | B (Scirpus juncoides) herbicidal ratio grade [3] | P (Stellaria media) herbicidal effect grade [4] | G (Setaria viridis) herbicidal effect grade [5] | F (Digitaria ciliaris) herbicidal effect grade [6] | R (Veronica persica) herbicidal effect grade [7] | M (Abutilon theophrasti) herbicidal effect grade [8] | I (Avena fatua) herbicidal effect grade [9] | Q (Galium spurium) herbicidal effect grade [10] | N (Amaranthus retroflexus) herbicidal effect grade [11] | L (Apera spica-venti.) herbicidal effect grade [12] | K (Lolium multiflorum Lam.) herbicidal effect grade [13] | J (Alopecurus myosuroides) herbicidal effect grade [14] | O (Chenopodium album) herbicidal effect grade [15] | H (Echinochloa crus-galli var. crus-galli) herbicidal effect grade [16] | b (Zea mays) effect on crop grade [17] | d (directly sowed Oryza sativa) effect on crop grade [18] | e (Triticum aestivum) effect on crop grade [19] | f (Beta vulgaris ssp. vulgaris) effect on crop grade [20] | also measured
CCCS(=O)(=O)c1nnc2c(C(=O)Nc3nnnn3C)ccc(C(F)(F)F)n12 [2-070] | 5 (Herbicidal ratio of 90% or more (almost completely withered)) | 5 (Herbicidal ratio of 90% or more (almost completely withered)) | 5 (Herbicidal ratio of 90% or more (almost completely withered)) | 5 (Herbicidal ratio of 90% or more (almost completely withered)) | 5 (Herbicidal ratio of 90% or more (almost completely withered)) | 5 (Herbicidal ratio of 90% or more (almost completely withered)) | 5 (Herbicidal ratio of 90% or more (almost completely withered)) | 4 (Herbicidal ratio of 70% or more and less than 90%) | 5 (Herbicidal ratio of 90% or more (almost completely withered)) | 4 (Herbicidal ratio of 70% or more and less than 90%) | 5 (Herbicidal ratio of 90% or more (almost completely withered)) | 4 (Herbicidal ratio of 70% or more and less than 90%) | 4 (Herbicidal ratio of 70% or more and less than 90%) | 4 (Herbicidal ratio of 70% or more and less than 90%) | 5 (Herbicidal ratio of 90% or more (almost completely withered)) | 5 (Herbicidal ratio of 90% or more (almost completely withered)) | 3 (Herbicidal ratio of 40% or more and less than 70%) | 3 (Herbicidal ratio of 40% or more and less than 70%) | 4 (Herbicidal ratio of 70% or more and less than 90%) | 5 (Herbicidal ratio of 90% or more (almost completely withered)) | g (Brassica campestris L.) effect on crop grade [21]: 5 (Herbicidal ratio of 90% or more (almost completely withered)); c (Glycine max) effect on crop grade [22]: 4 (Herbicidal ratio of 70% or more and less than 90%)
CC(C)CSc1nnc2c(C(=O)Nc3nnnn3C)ccc(C(F)(F)F)n12 [2-071] | 3 (Herbicidal ratio of 40% or more and less than 70%) | 5 (Herbicidal ratio of 90% or more (almost completely withered)) | 5 (Herbicidal ratio of 90% or more (almost completely withered)) | 5 (Herbicidal ratio of 90% or more (almost completely withered)) | 4 (Herbicidal ratio of 70% or more and less than 90%) | 5 (Herbicidal ratio of 90% or more (almost completely withered)) | 5 (Herbicidal ratio of 90% or more (almost completely withered)) | 4 (Herbicidal ratio of 70% or more and less than 90%) | 2 (Herbicidal ratio of 20% or more and less than 40%) | 3 (Herbicidal ratio of 40% or more and less than 70%) | 5 (Herbicidal ratio of 90% or more (almost completely withered)) | 1 (Herbicidal ratio of 5% or more and less than 20%) | 1 (Herbicidal ratio of 5% or more and less than 20%) | 1 (Herbicidal ratio of 5% or more and less than 20%) | 5 (Herbicidal ratio of 90% or more (almost completely withered)) | 5 (Herbicidal ratio of 90% or more (almost completely withered)) | 1 (Herbicidal ratio of 5% or more and less than 20%) | 3 (Herbicidal ratio of 40% or more and less than 70%) | 1 (Herbicidal ratio of 5% or more and less than 20%) | 5 (Herbicidal ratio of 90% or more (almost completely withered)) | g (Brassica campestris L.) effect on crop grade [21]: 4 (Herbicidal ratio of 70% or more and less than 90%); c (Glycine max) effect on crop grade [22]: 2 (Herbicidal ratio of 20% or more and less than 40%)
CCC(C)Sc1nnc2c(C(=O)Nc3nnnn3C)ccc(C(F)(F)F)n12 (stereo not shown) [2-072] | 5 (Herbicidal ratio of 90% or more (almost completely withered)) | 5 (Herbicidal ratio of 90% or more (almost completely withered)) | 5 (Herbicidal ratio of 90% or more (almost completely withered)) | 5 (Herbicidal ratio of 90% or more (almost completely withered)) | 5 (Herbicidal ratio of 90% or more (almost completely withered)) | 5 (Herbicidal ratio of 90% or more (almost completely withered)) | 5 (Herbicidal ratio of 90% or more (almost completely withered)) | 5 (Herbicidal ratio of 90% or more (almost completely withered)) | 1 (Herbicidal ratio of 5% or more and less than 20%) | 3 (Herbicidal ratio of 40% or more and less than 70%) | 5 (Herbicidal ratio of 90% or more (almost completely withered)) | 3 (Herbicidal ratio of 40% or more and less than 70%) | 1 (Herbicidal ratio of 5% or more and less than 20%) | 1 (Herbicidal ratio of 5% or more and less than 20%) | 5 (Herbicidal ratio of 90% or more (almost completely withered)) | 5 (Herbicidal ratio of 90% or more (almost completely withered)) | 1 (Herbicidal ratio of 5% or more and less than 20%) | 4 (Herbicidal ratio of 70% or more and less than 90%) | 1 (Herbicidal ratio of 5% or more and less than 20%) | 5 (Herbicidal ratio of 90% or more (almost completely withered)) | g (Brassica campestris L.) effect on crop grade [21]: 4 (Herbicidal ratio of 70% or more and less than 90%); c (Glycine max) effect on crop grade [22]: 3 (Herbicidal ratio of 40% or more and less than 70%)
CC(C)c1nnc2c(C(=O)Nc3nnnn3-c3ccccc3)ccc(C(F)(F)F)n12 [2-073] | 2 (Herbicidal ratio of 20% or more and less than 40%) | 3 (Herbicidal ratio of 40% or more and less than 70%) | 2 (Herbicidal ratio of 20% or more and less than 40%) | 4 (Herbicidal ratio of 70% or more and less than 90%) | 1 (Herbicidal ratio of 5% or more and less than 20%) | 1 (Herbicidal ratio of 5% or more and less than 20%) | 2 (Herbicidal ratio of 20% or more and less than 40%) | 3 (Herbicidal ratio of 40% or more and less than 70%) | 1 (Herbicidal ratio of 5% or more and less than 20%) | 0 (Herbicidal ratio of 5% or less (almost no effect)) | 3 (Herbicidal ratio of 40% or more and less than 70%) | 0 (Herbicidal ratio of 5% or less (almost no effect)) | 1 (Herbicidal ratio of 5% or more and less than 20%) | 0 (Herbicidal ratio of 5% or less (almost no effect)) | 5 (Herbicidal ratio of 90% or more (almost completely withered)) | 4 (Herbicidal ratio of 70% or more and less than 90%) | 0 (Herbicidal ratio of 5% or less (almost no effect)) | 2 (Herbicidal ratio of 20% or more and less than 40%) | 0 (Herbicidal ratio of 5% or less (almost no effect)) | 3 (Herbicidal ratio of 40% or more and less than 70%) | g (Brassica campestris L.) effect on crop grade [21]: 0 (Herbicidal ratio of 5% or less (almost no effect)); c (Glycine max) effect on crop grade [22]: 0 (Herbicidal ratio of 5% or less (almost no effect))
